Results published in ChEMBL document CHEMBL4359904, “Structural tuning of acridones for developing anticancer agents targeting dihydrofolate reductase” (Bioorg Med Chem Lett, 2019).
Calls of active or inactive are those of the source. No cut-off for these calls is given here.

What was measured:
MDA-MB-435 = test: Growth inhibition of human MDA-MB-435 cells incubated for 48 hrs by sulforhodamine B assay; format: functional; details: MDA-MB-435, 48 h
MDA-MB-468 [1] = test: Growth inhibition of human MDA-MB-468 cells incubated for 48 hrs by sulforhodamine B assay; format: functional; details: MDA-MB-468, 48 h
SK-MEL-5 = test: Growth inhibition of human SK-MEL-5 cells incubated for 48 hrs by sulforhodamine B assay; format: functional; details: SK-MEL-5, 48 h
NCI/ADR-RES = test: Growth inhibition of human NCI/ADR-RES cells incubated for 48 hrs by sulforhodamine B assay; format: functional
COLO 205 = test: Growth inhibition of human COLO205 cells incubated for 48 hrs by sulforhodamine B assay; format: functional; details: COLO 205, 48 h
TK-10 = test: Growth inhibition of human TK10 cells incubated for 48 hrs by sulforhodamine B assay; format: functional; details: TK-10, 48 h
SN12C = test: Growth inhibition of human SN12C cells incubated for 48 hrs by sulforhodamine B assay; format: functional
OVCAR-5 = test: Growth inhibition of human OVCAR5 cells incubated for 48 hrs by sulforhodamine B assay; format: functional; details: OVCAR-5, 48 h
[2] = test system: Panel NCI-60 (60 carcinoma cell lines); test: Therapeutic index, ratio of LC50 for human NCI60 cells to GI50 for human NCI60 cells measured after 48 hrs by sulforhodamine B assay; format: functional
C6 [3] = test: Cell cycle arrest in rat C6 cells assessed as cell population at G0/G1 phase measured after 24 hrs by propidium iodide staining based flow cytometry analysis; format: functional
UO-31 = test: Growth inhibition of human UO31 cells at 10^-5 M incubated for 48 hrs by sulforhodamine B assay relative to control; format: functional; details: UO-31, 48 h, read-out: GI
MCF7 = test: Growth inhibition of human MCF7 cells incubated for 48 hrs by sulforhodamine B assay; format: functional; details: MCF7, 48 h
MDA-MB-468 [4] = test: Growth inhibition of human MDA-MB-468 cells at 10^-5 M incubated for 48 hrs by sulforhodamine B assay relative to control; format: functional; details: MDA-MB-468, 48 h, read-out: GI
HL-60(TB) = test: Growth inhibition of human HL-60(TB) cells incubated for 48 hrs by sulforhodamine B assay; format: functional; details: HL-60, 48 h
786-0 = test: Growth inhibition of human 786-0 cells incubated for 48 hrs by sulforhodamine B assay; format: functional; details: 786-0, 48 h
OVCAR-3 = test: Growth inhibition of human OVCAR3 cells incubated for 48 hrs by sulforhodamine B assay; format: functional; details: OVCAR-3, 48 h
Malme-3M = test: Growth inhibition of human MALME-3M cells incubated for 48 hrs by sulforhodamine B assay; format: functional
MOLT-4 = test: Growth inhibition of human MOLT4 cells at 10^-5 M incubated for 48 hrs by sulforhodamine B assay relative to control; format: functional; details: MOLT-4, 48 h, read-out: GI
NCI-H460 = test: Growth inhibition of human NCI-H460 cells at 10^-5 M cells incubated for 48 hrs by sulforhodamine B assay relative to control; format: functional
C6 [5] = test: Cell cycle arrest in rat C6 cells assessed as decrease in cell population at G2/M phase measured after 24 hrs by propidium iodide staining based flow cytometry analysis; format: functional
RXF 393 = test: Growth inhibition of human RXF393 cells incubated for 48 hrs by sulforhodamine B assay; format: functional; details: RXF 393, 48 h
Dihydrofolate reductase = molecular target: T1, Dihydrofolate reductase (Homo sapiens, UniProt P00374); test: Inhibition of human dihydrofolate reductase using dihydrofolic acid as substrate preincubated for 1 hr in presence of NADPH followed by substrate addition by enzyme immunoassay
T1 sequence (P00374 whole entry): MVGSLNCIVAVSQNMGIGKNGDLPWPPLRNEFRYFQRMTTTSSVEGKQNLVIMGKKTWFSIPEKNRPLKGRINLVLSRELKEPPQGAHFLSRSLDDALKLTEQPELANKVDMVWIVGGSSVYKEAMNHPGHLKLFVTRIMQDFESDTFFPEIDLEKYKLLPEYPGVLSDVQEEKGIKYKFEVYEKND

RPMI-8226 = test: Growth inhibition of human RPMI8226 cells incubated for 48 hrs by sulforhodamine B assay; format: functional; details: RPMI-8226, 48 h
C6 [6] = test: Cell cycle arrest in rat C6 cells assessed as increase in cell population at sub G0 phase measured after 24 hrs by propidium iodide staining based flow cytometry analysis; format: functional
EKVX = test: Growth inhibition of human EKVX cells incubated for 48 hrs by sulforhodamine B assay; format: functional
NCI-H226 = test: Growth inhibition of human NCI-H226 cells incubated for 48 hrs by sulforhodamine B assay; format: functional; details: NCI-H226, 48 h
HOP-62 = test: Growth inhibition of human HOP62 cells incubated for 48 hrs by sulforhodamine B assay; format: functional; details: HOP-62, 48 h
SR = test: Growth inhibition of human SR cells at 10^-5 M incubated for 48 hrs by sulforhodamine B assay relative to control; format: functional; details: read-out: GI
NCI-H322M = test: Growth inhibition of human NCI-H322M cells incubated for 48 hrs by sulforhodamine B assay; format: functional
HT-29 = test: Growth inhibition of human HT-29 cells at 10^-5 M incubated for 48 hrs by sulforhodamine B assay relative to control; format: functional; details: HT-29, 48 h, read-out: GI
SW-620 = test: Growth inhibition of human SW620 cells incubated for 48 hrs by sulforhodamine B assay; format: functional; details: SW-620, 48 h
[7] = read-out: pLC50 (the source's name) (converted)
[8] = read-out: LC50 (the source's name)

## O=c1c2ccccc2n(CC2CO2)c2ccccc12 (racemic)
MDA-MB-435
  GI50: 282 nM
MDA-MB-435; [7]
  CC50: 4680 nM
MDA-MB-435; read-out: pTGI (converted)
  TGI: 1230 nM
MDA-MB-468 [1]
  GI50: 1200 nM
MDA-MB-468 [1]; [7]
  CC50: 7940 nM
MDA-MB-468 [1]; read-out: pTGI (converted)
  TGI: 3090 nM
SK-MEL-5
  GI50: 209 nM
SK-MEL-5; [7]
  CC50: 1120 nM
SK-MEL-5; read-out: pTGI (converted)
  TGI: 468 nM
NCI/ADR-RES
  GI50: 257 nM
NCI/ADR-RES; [7]
  CC50: > 100000 nM
NCI/ADR-RES; read-out: pTGI (converted)
  TGI: 1100 nM
COLO 205
  GI50: 245 nM
COLO 205; [7]
  CC50: 64600 nM
COLO 205; read-out: pTGI (converted)
  TGI: 1410 nM
TK-10
  GI50: 479 nM
TK-10; [7]
  CC50: > 100000 nM
TK-10; read-out: pTGI (converted)
  TGI: 3090 nM
SN12C
  GI50: 229 nM
SN12C; [7]
  CC50: 6170 nM
SN12C; read-out: pTGI (converted)
  TGI: 1200 nM
OVCAR-5
  GI50: 513 nM
OVCAR-5; [7]
  CC50: 24000 nM
OVCAR-5; read-out: pTGI (converted)
  TGI: 3630 nM
[2]
  TI: 28
C6 [3]
  Activity: inactive
UO-31
  inhibition of growth at 10 µM: 100%
MCF7; read-out: GI50
  GI50: 50 nM
MCF7; [8]
  CC50: > 100000 nM
MCF7; read-out: pGI50 (converted)
  GI50: 55 nM
MCF7; [7]
  CC50: > 100000 nM
MCF7; read-out: pTGI (converted)
  TGI: 741 nM
MDA-MB-468 [4]
  inhibition of growth at 10 µM: 100%
HL-60(TB)
  GI50: 204 nM
HL-60(TB); read-out: pTGI (converted)
  TGI: 490 nM
786-0
  GI50: 372 nM
786-0; [7]
  CC50: > 100000 nM
786-0; read-out: pTGI (converted)
  TGI: 5250 nM
OVCAR-3
  GI50: 288 nM
OVCAR-3; [7]
  CC50: > 100000 nM
OVCAR-3; read-out: pTGI (converted)
  TGI: 1510 nM
Malme-3M
  GI50: 589 nM
Malme-3M; [7]
  CC50: 4900 nM
Malme-3M; read-out: pTGI (converted)
  TGI: 2000 nM
MOLT-4
  inhibition of growth at 10 µM: 100%
NCI-H460
  growth inhibition (GI): 100%
C6 [5]
  inhibition: Active
RXF 393
  GI50: 214 nM
RXF 393; [7]
  CC50: 2290 nM
RXF 393; read-out: pTGI (converted)
  TGI: 513 nM
Dihydrofolate reductase
  IC50: 20 nM
RPMI-8226
  GI50: 302 nM
RPMI-8226; [7]
  CC50: > 100000 nM
RPMI-8226; read-out: pTGI (converted)
  TGI: 1100 nM
C6 [6]
  Activity: Active
EKVX
  GI50: 1380 nM
EKVX; [7]
  CC50: > 100000 nM
EKVX; read-out: pTGI (converted)
  TGI: 5010 nM
NCI-H226
  GI50: 302 nM
NCI-H226; [7]
  CC50: > 100000 nM
NCI-H226; read-out: pTGI (converted)
  TGI: 1480 nM
HOP-62
  GI50: 380 nM
HOP-62; [7]
  CC50: > 100000 nM
HOP-62; read-out: pTGI (converted)
  TGI: 2750 nM
SR
  inhibition of growth at 10 µM: 91%
NCI-H322M
  GI50: 2000 nM
NCI-H322M; [7]
  CC50: > 100000 nM
NCI-H322M; read-out: pTGI (converted)
  TGI: 7760 nM
HT-29
  inhibition of growth at 10 µM: 100%
SW-620; read-out: GI50
  GI50: 50 nM
SW-620; [8]
  CC50: > 50 nM
SW-620; read-out: pGI50 (converted)
  GI50: 56.2 nM
SW-620; [7]
  CC50: > 100000 nM
SW-620; read-out: pTGI (converted)
  TGI: 1200 nM
